The values that follow come from patent US8426612B2, “Synthesis of 3-{[(2R)-1-methylpyrrolidin-2-yl]methyl}-5[2-(phenylsulfonyl)ethyl]-1H-indole” (F.I.S. Fabbrica Italiana Sintetici S.p.A., priority 2009, dated 2013).

The conditions of data set [1]: reported in U.S. Pat. No. 6,110,940; converts into Form Alpha; cited from earlier work.
Data set [2] can be described thus: Stability tests of Eletriptan hydrobromide Beta form polymorph in various solvents, temperatures and times. It counts as physicochemical. The following applies: all experiments of the 1st table: various solvents, RT to 80° C. or heating, 5-48 hr; DSC trace. The text has this:
Eletriptan hydrobromide Beta form obtained according to the inventive process has been subject to a series of experiments to assess its stability against the conversion into Form Alpha of higher melting point or in amorphous.
These experiments have been performed in various solvents and at various temperature and time conditions. […] The DSC trace is the same for all the product prepared according to Example 18 and is the same of that of Beta polymorph.

The nature of data set [3]: Prior-art experiments to convert Beta form to Alpha form or amorphous, repeated under exactly the same conditions. It counts as physicochemical. The conditions noted are these: conditions of U.S. Pat. No. 6,110,940 (example 2) and WO2008/137134 (examples 16-19; 2, 7, 8, 12, 13). How it is done:
In addition, the same experiments described in U.S. Pat. No. 6,110,940 (example 2) and WO2008/137134 (examples 16, 17, 18, 19) to convert Eletriptan Beta form to Alpha form and those described in WO2008/137134 (examples 2, 7, 8, 12 and 13) to convert Eletriptan Beta form to amorphous were carried out on Eletriptan Hydrobromide form Beta of invention, applying exactly the same conditions. […] There results confirms the stability of Eletriptan hydrobromide Beta form of invention and his different behaviour in comparison with the same form described in the State of the Art.

Data set [4] can be described thus: DSC study with heating/cooling cycles to convert Beta form to other forms. It counts as physicochemical.
Data set [5] is described as follows: Hygroscopicity test as described in the European Pharmacopoeia 5.0. The conditions noted are these: 25° C., 80% rel. humidity, 24 h. The data set is classed as physicochemical. How it is done:
Eletriptan hydrobromide Beta stable form obtained according to the inventive process has been subject to the hygroscopicity test as described in the European Pharmacopoeia 5.0 (25° C., 80% rel. humidity, 24 h).

The structures appear in SMILES notation.

Turning to `Br.CN1CCC[C@@H]1Cc1c[nH]c2ccc(CCS(=O)(=O)c3ccccc3)cc12` [Form Beta of Eletriptan hydrobromide], the stability of polymorph entry in data set [1] is on record as “not stable”.

For the molecule `Br.CN1CCC[C@@H]1Cc1c[nH]c2ccc(CCS(=O)(=O)c3ccccc3)cc12` [Eletriptan hydrobromide Form Beta, 3-{[(2R)-1-methylpyrrolidin-2-yl]methyl}-5-[2-(phenylsulfonyl)ethyl]-1H-indole hydrobromide], the “stability against conversion into Form Alpha, amorphous or other forms” value in data set [2] is given as “did not convert into Form A, amorphous or other crystalline forms or in any hydrated form”. In data set [3], the polymorphic form obtained entry is given as “provided only Eletriptan hydrobromide form Beta”. Moreover, in data set [4], the polymorphic form obtained entry is reported as “provided always Form Beta”. Also, in data set [5], the “hygroscopicity (classification)” value is on record as “not hygroscopic” and the “hygroscopicity (value)” value stood at 0.1%.
